{
  "source": "patent US20230381172A1",
  "about": "“COMBINATIONS OF BCL-2 INHIBITORS WITH CHEMOTHERAPEUTIC AGENTS” (RECURIUM IP HOLDINGS, LLC, priority 2020, published 2023)",
  "key": {"HL-60 cells": {"test_system": "HL-60 cells", "assay": "In vitro cell assay, CellTiter-Glo cell viability, HL-60", "type": "cell-based, human", "conditions": "10,000 HL-60 cells, 72 h, CTG; 150 nM Compound 5A, 5,000 nM azacitidine, single agent or combination of both", "method": "(§1) The cells were incubated with the indicated compound at the indicated concentration as described below. The combination indices (CI) were calculated using formula […]. A and B are the percent cell inhibition by single agent treatment, and AB is the percent cell inhibition by the combination.\n(§2) For each cell line, the cell viability was assessed using a CellTiter-Glo® (CTG) assay."}, "MOLM-13 cells": {"test_system": "MOLM-13 cells", "assay": "In vitro cell assay, CellTiter-Glo cell viability, MOLM-13", "type": "cell-based", "conditions": "20,000 MOLM-13 cells, 72 h, CTG; 5 nM Compound 5A, 1,500 nM azacitidine, single agent or combination of both", "method": "as §1, §2"}, "[1]": {"test_system": "HL-60 cells (human myeloid leukemia cell line)", "assay": "In vivo efficacy, HL-60 leukemia xenograft model (azacitidine combination, FIG. 5)", "conditions": "HL-60 s.c. xenograft in mice; Compound 5A 50 mg/kg p.o. qd×19; Azacitidine 2.5 mg/kg i.p. qd 5 days on 2 days off; alone or combined", "method": "Mice were inoculated with HL-60 cells (human myeloid leukemia cell line) subcutaneously on the right flank with the single cell suspension of 95% viable tumor cells (1×10^7) in 100 μL IMDM Matrigel mixture (1:1 ratio) without serum for the tumor development. The treatment was started when the mean tumor size reached approximately 222 mm^3, with individual tumor size ranging from 185-245 mm^3. Animals were randomly distributed into treatment groups of 10 animals each and dosed with vehicle and indicated compounds at indicated dosage and frequency shown in FIG. 5 and Table 3. In FIG. 5, the top line (indicated with circles) is Vehicle control, the second from the top line (indicated with triangles) is Azacitidine (2.5 mg/kg 5 mL/kg i.p. qd (5 days on, 2 days off,)), the second from the bottom line (indicated with circles) is Compound 5A (50 mg/kg 10 mL/kg p.o. qd×19) and the bottom line (indicated with triangles) is Compound 5A (50 mg/kg p.o. qd×19)+Azacitidine (2.5 mg/kg i.p. qd 5×3 (5 days on 2 days off)). Tumor volumes were evaluated twice per week to calculate tumor volume over time, and mice were weighed twice per week as a surrogate for signs of toxicity. Tumor growth inhibition (TGI) was calculated using the following equation TGI=(1-(Td−T0)/(Cd−C0))×100%. […]"}, "RS4;11 cells": {"test_system": "RS4;11 cells", "assay": "In vitro cell assay, CellTiter-Glo cell viability, RS4;11", "type": "cell-based", "conditions": "50,000 RS4;11 cells, 72 h, CTG; 5 nM Compound 5A, 1,500 nM azacitidine, single agent or combination of both", "method": "as §1, §2"}, "MV4-11 cells": {"test_system": "MV4-11 cells", "assay": "In vitro cell assay, CellTiter-Glo cell viability, MV4-11", "type": "cell-based", "conditions": "20,000 MV4-11 cells, 72 h, CTG; 25 nM Compound 5A, 2,272 nM azacitidine, single agent or combination of both", "method": "as §1, §2"}, "[2]": {"test_system": "DOHH cells (non-Hodgkin's cell line)", "assay": "In vivo efficacy, DOHH non-Hodgkin's model (bendamustine combination, FIG. 8)", "conditions": "DOHH s.c. xenograft in mice; Compound 5A 100 mg/kg p.o. qd×13; Bendamustine 25 mg/kg i.v. qd×1; alone or combined", "method": "Tumor volumes were evaluated twice per week to calculate tumor volume over time, and mice were weighed twice per week as a surrogate for signs of toxicity. Tumor growth inhibition (TGI) was calculated using the following equation TGI=(1−(Td−T0)/(Cd−C0))×100%. Td and Cd are the mean tumor volumes of the treated and control animals, and T0 and C0 are the mean tumor volumes of the treated and control animals at the start of the experiment. The tumor regression was defined as individual tumor volume (TV) decrease (terminal TV compared to initial TV)."}, "KMS-12-BM cells": {"test_system": "KMS-12-BM cells", "assay": "In vivo efficacy, KMS-12-BM model (bortezomib combination, FIG. 7)", "conditions": "KMS-12-BM s.c. xenograft in mice; Compound 5A 50 mg/kg p.o. qd×21; Bortezomib 0.5 mg/kg i.p. BIW; alone or combined", "method": "Mice were inoculated with KMS-12-BM cells ([…]) subcutaneously on the right flank with the single cell suspension of 95% viable tumor cells (1×10^7) in 100 μL IMDM Matrigel mixture (1:1 ratio) without serum for the tumor development. The treatment was started when the mean tumor size reached approximately 222 mm^3, with individual tumor size ranging from 185-245 mm^3. Animals were randomly distributed into treatment groups of 10 animals each and dosed with vehicle and indicated compounds at indicated dosage and frequency shown in FIG. 7 and Table 3. In FIG. 7, the top line (indicated with diamonds) is Vehicle control, the second from the top line (indicated with squares) is Compound 5A (50 mg/kg), the second from the bottom line (indicated with “x”) is Bortezomib (0.5 mg/kg) and the bottom line ([…]). Tumor volumes were evaluated twice per week to calculate tumor volume over time, and mice were weighed twice per week as a surrogate for signs of toxicity. Tumor growth inhibition (TGI) was calculated using the following equation TGI=(1−(Td−T0)/(Cd−C0))×100%. Td and Cd are the mean tumor volumes of the treated and control animals, and T0 and C0 are the mean tumor volumes of the treated and control animals at the start of the experiment. The tumor regression was defined as individual tumor volume (TV) decrease (terminal TV compared to initial TV)."}, "[3]": {"test_system": "HL-60 cells (human myeloid leukemia cell line)", "assay": "In vivo efficacy, HL-60 leukemia xenograft model (cytarabine combination, FIG. 6)", "conditions": "HL-60 s.c. xenograft in mice; Compound 5A 25 mg/kg p.o. qd×19; Cytarabine 5 mg/kg i.p. qd 5 days on 2 days off; alone or combined", "method": "Mice were inoculated with HL-60 cells (human myeloid leukemia cell line) subcutaneously on the right flank with the single cell suspension of 95% viable tumor cells (1×10^7) in 100 μL IMDM Matrigel mixture (1:1 ratio) without serum for the tumor development. The treatment was started when the mean tumor size reached approximately 218 mm^3, with individual tumor size ranging from 185-245 mm^3. Animals were randomly distributed into treatment groups of 10 animals each and dosed with vehicle and indicated compounds at indicated dosage and frequency shown in FIG. 6 and Table 3. In FIG. 6, the top line (indicated with triangles) is Cytarabine (5.0 mg/kg), the second from the top line (indicated with circles) is Vehicle control, the second from the bottom line (indicated with diamonds) is Compound 5A (25 mg/kg) and the bottom line (indicated with circles) is Compound 5A (25 mg/kg p.o. qd×19)+Cytarabine (5 mg/kg i.p. qd 5×3 (5 days on 2 days off)). Tumor volumes were evaluated twice per week to calculate tumor volume over time, and mice were weighed twice per week as a surrogate for signs of toxicity. Tumor growth inhibition (TGI) was calculated using the following equation TGI=(1−(Td−T0)/(Cd−C0))×100%. Td and Cd are the mean tumor volumes of the treated and control animals, and TO and CO are the mean tumor volumes of the treated and control animals at the start of the experiment. […]"}},
  "data": [
    {"molecule": "Nc1ncn([C@@H]2O[C@H](CO)[C@@H](O)[C@H]2O)c(=O)n1", "note": "[Azacitidine, azacitidine]", "values": [
      {"measurement": "HL60 % inhibition", "setting": "HL-60 cells", "result": 21.6, "unit": "%"},
      {"measurement": "MOLM-13 % inhibition", "setting": "MOLM-13 cells", "result": 47.0, "unit": "%"},
      {"measurement": "TGI % Day 18", "setting": "[1]", "result": 11, "unit": "%"},
      {"measurement": "RS4;11 % inhibition", "setting": "RS4;11 cells", "result": 32.5, "unit": "%"},
      {"measurement": "MV4;11 % inhibition", "setting": "MV4-11 cells", "result": 82.9, "unit": "%"}
    ]},
    {"molecule": "Cn1c(CCCC(=O)O)nc2cc(N(CCCl)CCCl)ccc21", "note": "[Bendamustine]", "values": [
      {"measurement": "TGI % Day 26", "setting": "[2]", "result": 44, "unit": "%"}
    ]},
    {"molecule": "CC(C)C[C@H](NC(=O)[C@H](Cc1ccccc1)NC(=O)c1cnccn1)B(O)O", "note": "[Bortezomib, bortezomib]", "values": [
      {"measurement": "TGI % Day 14", "setting": "KMS-12-BM cells", "result": 46, "unit": "%"}
    ]},
    {"molecule": "Nc1ccn([C@@H]2O[C@H](CO)[C@@H](O)[C@@H]2O)c(=O)n1", "note": "[Cytarabine]", "values": [
      {"measurement": "TGI % Day 18", "setting": "[3]", "result": "−6", "unit": "%"}
    ]}
  ]
}
